Data taken from publication PMC5131319, “Occurrence, temporal trends, and half-lives of perfluoroalkyl acids (PFAAs) in occupational workers in China” (Scientific Reports, 2016).
Values joined by “and” are separate entries in the source; they are usually repeats but may differ in a detail not shown here. Equal values may be shown once. Read-outs that look alike come from different tables or passages of the source.

How the values were obtained:
[1] = PFAA concentration in serum of occupational workers (HPLC-ESI/MS/MS); assay type: in vivo, human; set-up: Serum PFAA level: unit: ng/mL
Experimental: (§1) The selected fluorochemical plant (Henxin Chemical Plant) in this study is one of the largest producers of PFOS-related chemicals in China and is located in Yingcheng, Hubei province. Perfluoroalkyl sulfonic acids (PFSAs) and perfluorotertiary amines are synthesized through an electro-chemical fluorination (ECF) process. We collected paired serum and urine samples from the occupational workers in the plant for five consecutive years, and the sampling activities were carried out in Nov. 2008, Nov. 2009, Nov. 2010, Dec. 2011, and Dec 2012, respectively. The Medical Research Ethics Committee, School of Medicine, Jianghan University, approved the ethics of this study, and all methods were performed in accordance with the relevant guidelines and regulations, moreover, all volunteers gave written informed consent. Demographic information of the donors, including gender, age, length of service, and work assignment, was collected with a questionnaire (Table S1). The sampled population included a total of 302 occupational workers, of which there were 89 female and 213 male participants. In total, 302 serum and 274 urine samples were collected.
(§2) The participants were told not to eat breakfast before the sampling, and morning urine samples and blood samples were collected. Serum was separated from the blood by centrifugation at 1100 × g at 4 °C for 10 min and then placed on ice. Serum samples were then transferred to our laboratory on the same day and stored in polypropylene containers at −20 °C until analysis.
(§3) All pre-treatment methods and instrument analysis of PFAAs in serum and urine samples are based on previous studies with minor modifications (see Supplementary Information)[3][31]. Based on the PFAA profiles in environmental matrices around the same plant in our previous study, only 3 main PFAAs, PFHxS, PFOA, and PFOS, were analyzed in the obtained serum and urine samples. Instrumental analysis of the PFAAs was performed by a HPLC-ESI/MS/MS system (HPLC: Waters 2695, MS: Waters Quattro Premier XE). The limits of detection (LODs) of PFHxS, PFOA, and PFOS were 0.020, 0.063, and 0.018 ng mL^−1 for serum samples and 0.008, 0.025, and 0.007 ng mL^−1 for urine samples, respectively. A procedural blank was performed for every batch of seven samples, and all of the blank levels were below the LODs. […] Details of quality assurance and quality control of the chemical analysis can be found in the Supplementary Information.

[2] = PFAA concentration in morning urine of occupational workers (HPLC-ESI/MS/MS); assay type: in vivo, human; details: for Urine PFOS concentration: individual workers
Experimental: as §1, §2, §3
Urine samples were pretreated by solid phase extraction. Briefly, 1 mL of urine spiked with 5 ng of internal standard was added to a 15 - mL PP tube and diluted with 13 mL water. The solid phase extraction procedure was then performed following the previously described serum extraction procedure.

[3] = cited from earlier work
[4] = Half-life estimated by annual decline rates of serum PFAAs (first-order model); assay type: in vivo, human
Source text: Olsen et al.[21] found linear relationship between the logarithm of serum PFAAs concentration and time, and a first order model was adopted to estimate the half-lives of PFAAs. The elimination of PFAAs in humans was also described with the following equation: […]
If we set C(t) as 1/2C0, then the half-life
where k is the elimination rate constant. We calculated k using two approaches in the present study. In the first approach, k is defined as Cltotal/Vd, where Vd stands for the volume of distribution of PFAAs in the human body. Cltotal represents the total daily PFAAs clearance in the human body; for men and women older than 50, it refers to renal clearance, while for young women, it is defined as the sum of menstrual clearance and renal clearance. To keep consistency with other studies, Vd of PFOS and PFHxS were set at 230 mL kg^−1, and Vd of PFOA was set at 170 mL kg^−1 in this study. In the second approach, k is defined as the average annual decline rates of PFAAs in workers who participated in this study.
Serum PFAAs of workers were sequentially measured for 5 years, and they fluctuated during our sampling period, although different serum PFAAs decreased in certain years. […] For PFOA, 31 out of 42 workers decreased in the period of 2011–2012, and the serum PFOA concentration dropped by 41%. […] We assumed that there were no new inputs of PFAAs in these workers, and thus k in Eq (2) was set as the average annual serum PFAA decline rate. The half-lives of PFHxS, PFOA, and PFOS estimated by Eq (2) were 3.6, 1.7, and 1.9 years.

[5] = cited from earlier work; remark: listed apart in the source
[6] = Fabric finishing agent department, N 8
[7] = retired fluorochemical production workers

O=S(=O)(O)C(F)(F)C(F)(F)C(F)(F)C(F)(F)C(F)(F)C(F)(F)C(F)(F)C(F)(F)F [PFOS, perfluorooctanesulfonate]
Serum concentration, GM ([1]; 46 workers sampled at least three times, 2008): 1751 ng/mL | Serum concentration, GM ([1]; 46 workers sampled at least three times, 2009): 1095 ng/mL | Serum concentration, GM ([1]; 46 workers sampled at least three times, 2012): 2580 ng/mL | Serum concentration, mean ([1]; All workers, N 302): 5624 ng/mL | Serum concentration, range ([1]; All workers, N 302): 50.3 to 118000 ng/mL | Serum PFAA level ([1]; Electrolytic Department, length of service 1-3 years): 1827 | Serum PFAA level ([1]; Electrolytic Department, length of service < 1 year): 772 | Serum PFAA level ([1]; Electrolytic Department, length of service >3 years): 1393 | Serum concentration, mean ([1]; Electrolytic department, N 74): 1909 ng/mL | Serum concentration, median ([1]; Electrolytic department, N 74): 1541 ng/mL | Serum concentration, range ([1]; Electrolytic department, N 74): 234 to 8501 ng/mL | Serum concentration, mean [1, 6]: 514 ng/mL | Serum concentration, median [1, 6]: 267 ng/mL | Serum concentration, range [1, 6]: 103 to 1890 ng/mL | Serum PFAA level ([1]; Management Office, length of service 1-3 years): 641 | Serum PFAA level ([1]; Management Office, length of service < 1 year): 140 | Serum PFAA level ([1]; Management Office, length of service >3 years): 728 | Serum concentration, mean ([1]; Management office, N 92): 1144 ng/mL | Serum concentration, median ([1]; Management office, N 92): 616 ng/mL | Serum concentration, range ([1]; Management office, N 92): 50.3 to 7910 ng/mL | Serum PFAA level ([1]; Research Building, length of service 1-3 years): 888 | Serum PFAA level ([1]; Research Building, length of service < 1 year): 318 | Serum PFAA level ([1]; Research Building, length of service >3 years): 890 | Serum concentration, mean ([1]; Research building, N 27): 1195 ng/mL | Serum concentration, median ([1]; Research building, N 27): 736 ng/mL | Serum concentration, range ([1]; Research building, N 27): 101 to 7450 ng/mL | Serum PFAA level ([1]; Sulfonation Department, length of service 1-3 years): 5463 | Serum PFAA level ([1]; Sulfonation Department, length of service < 1 year): 5174 | Serum PFAA level ([1]; Sulfonation Department, length of service >3 years): 7756 | Serum concentration, mean ([1]; Sulfonation department, N 101): 14002 ng/mL | Serum concentration, median ([1]; Sulfonation department, N 101): 5544 ng/mL | Serum concentration, range ([1]; Sulfonation department, N 101): 416 to 118000 ng/mL | Serum concentration, geometric mean ([1]; all occupational workers): 1677 ng/mL | Average serum concentration (Average ± SD) ([1]; female workers, n 89): 2,221 ± 4,791 ng mL^−1 | Average serum concentration (Average ± SD) ([1]; male workers, n 213): 7,040 ± 15382 ng mL^−1 | Serum concentration below which 85 percent of the population lies ([1]; present study, workers): 6775 ng/mL | Serum PFOS concentration ([1]; serum, sampling year 2008, individual occupational workers): 853 ng/mL and 83 ng/mL and 463 ng/mL and 635 ng/mL and 357 ng/mL and 25000 ng/mL and 4570 ng/mL and 4540 ng/mL and 460 ng/mL and 3220 ng/mL and 4170 ng/mL and 3160 ng/mL and 2690 ng/mL and 650 ng/mL and 620 ng/mL and 250 ng/mL and 3580 ng/mL and 3030 ng/mL and 1770 ng/mL and 5220 ng/mL and 1970 ng/mL and 3940 ng/mL and 2600 ng/mL and 8430 ng/mL and 7450 ng/mL and 3800 ng/mL and 1450 ng/mL and 1280 ng/mL | Serum concentration, GM ([1]; workers with service length 1–3 years): 1861 ng/mL | Serum concentration, GM ([1]; workers with service length less than 1 year): 782 ng/mL | Serum concentration, GM ([1]; workers with service length more than 3 years): 1876 ng/mL | Urine concentration, mean ([2]; All workers, N 274): 4.4 ng/mL | Urine concentration, median ([2]; All workers, N 274): 1.2 ng/mL | Urine concentration, mean ([2]; Electrolytic department, N 67): 1.8 ng/mL | Urine concentration, median ([2]; Electrolytic department, N 67): 0.93 ng/mL | Urine concentration, mean [2, 6]: 0.39 ng/mL | Urine concentration, median [2, 6]: LOD | Urine concentration, mean ([2]; Management office, N 76): 1.6 ng/mL | Urine concentration, median ([2]; Management office, N 76): 0.49 ng/mL | Urine concentration, mean ([2]; Research building, N 25): 1.4 ng/mL | Urine concentration, median ([2]; Research building, N 25): 1.1 ng/mL | Urine concentration, mean ([2]; Sulfonation department, N 98): 8.8 ng/mL | Urine concentration, median ([2]; Sulfonation department, N 98): 3.0 ng/mL | Urine PFOS concentration ([2]; sampling year 2008): 0.918 ng/mL and 7.8 ng/mL and 7.66 ng/mL and 0.697 ng/mL and 0.425 ng/mL and 17.2 ng/mL and 3.94 ng/mL and 2.12 ng/mL and 0.736 ng/mL and 0.943 ng/mL and 2.18 ng/mL and 0.818 ng/mL and 0.217 ng/mL and 0.819 ng/mL and 0.291 ng/mL and 4.7 ng/mL and 7.69 ng/mL and 3.07 ng/mL and 0.465 ng/mL and 22.5 ng/mL and 3.09 ng/mL | Urine PFOS concentration ([2]; sampling year 2009): 0.361 ng/mL and 7.85 ng/mL and 2.17 ng/mL and 1.4 ng/mL and 0.831 ng/mL and 1.51 ng/mL and 0.198 ng/mL and 2.73 ng/mL and 0.47 ng/mL and 0.288 ng/mL and 0.078 ng/mL and 0.206 ng/mL and 0.094 ng/mL and 0.171 ng/mL and 0.84 ng/mL and 1.33 ng/mL and 0.14 ng/mL and 1.86 ng/mL and 2.58 ng/mL and 1.8 ng/mL | Urine PFOS concentration ([2]; sampling year 2010): 1.14 ng/mL and 0.258 ng/mL and 0.177 ng/mL and 64.2 ng/mL and 0.884 ng/mL and 0.714 ng/mL and 0.912 ng/mL and 0.855 ng/mL and 2.44 ng/mL and 0.39 ng/mL and 3.98 ng/mL and 0.314 ng/mL and 0.409 ng/mL and 1.98 ng/mL and 0.139 ng/mL and 14 ng/mL and 14.2 ng/mL and 7.14 ng/mL and 3.93 ng/mL | Urine PFOS concentration ([2]; sampling year 2011): 0.14 ng/mL and 0.17 ng/mL and 0.47 ng/mL and 49.90 ng/mL and 2.18 ng/mL and 0.43 ng/mL and 0.54 ng/mL and 5.08 ng/mL and 0.52 ng/mL and 0.29 ng/mL and 0.75 ng/mL and 0.51 ng/mL and 0.04 ng/mL and 0.70 ng/mL and 0.74 ng/mL and 1.78 ng/mL and 14.70 ng/mL and 7.74 ng/mL and 4.91 ng/mL and 2.24 ng/mL | Urine PFOS concentration ([2]; sampling year 2012): 0.7 ng/mL and 26.46 ng/mL and 0.46 ng/mL and 1.62 ng/mL and 0.22 ng/mL and 0.44 ng/mL and 0.58 ng/mL and 0.18 ng/mL and 0.5 ng/mL and 0.78 ng/mL and 0.1 ng/mL and 1.64 ng/mL and 0.06 ng/mL and 0.26 ng/mL and 0.12 ng/mL and 0.42 ng/mL and 7.26 ng/mL and 7.8 ng/mL and 9.72 ng/mL and 5.64 ng/mL | Clrenal values obtained from different sources, range [3]: 0.01 to 0.1 mL/day/kg | Clrenal, median ([3]; fishery employees from Tangxun Lake): 0.010 mL/day/kg | Average annual decline rate of serum concentration ([4]; 2008 to 2009, 36 workers): 37% | Half-life estimated by annual decline rates ([4]; k = average annual serum decline rate, no new inputs assumed, two time points): 1.9 years | Half-life, population-based pharmacokinetic model ([5]; US NHANES cross-sectional data 1999 to 2012): 3.7 years | Shortest half-life in humans reported in previous studies [5]: 3.7 years | Half-life based on serum concentrations ([5]; humans): more than 5 years | Half-life by daily clearance (GM) ([5]; males and older females): 18 years | half-life ([5]; males and older females): exceeded 10 years | Half-life (GM) [5, 7]: 4.8 years | Half-life, 95% CI [5, 7]: 3.9–6.9 years | half-life [5, 7]: approximately 5 years | Half-life by daily clearance (GM) ([5]; young females): 5.1 years
